In PubChem BioAssay (NCI) one finds GI50 and TGI data, which are given here for 49 compounds.

Values joined by “and” are separate entries in the source; they are usually repeats but may differ in a detail not shown here. Equal values may be shown once.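 Growth conditions: 96-well plates. Treatment: test compound, 48 hours, 5 concentrations. Analysis: linear interpolation between bracketing concentrations; unreached endpoints set to highest concentration. GI50 = concentration required for 50% inhibition of growth. TGI is the concentration that stops growth completely.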

This experiment has as its system MDA-MB-468 breast. The experiment can be described thus: NCI tumour cell line growth inhibition, 48 h.
As to `O=C(NO)c1ccc(Cn2c(=O)n(-c3ccccc3)c(=O)c3ccccc32)cc1`, the GI50 was 0.542 µM and the TGI was 2.23 µM.
Turning to `O=C(CCN1CCCC1)Nc1ccc2c(NCCc3ccccc3)c3ccccc3nc2c1`, the GI50 was 0.284 µM and the TGI was 1.04 µM.
Taken in the same sequence, the figures for `NC(=O)c1sc(-n2cnc3ccc(C(F)(F)F)cc32)cc1OCc1ccccc1Br` were 0.349 µM and 0.977 µM.
Taken in the same sequence, the figures for `CN(C)c1ccc(Nc2c3ccccc3nc3cc(NC(=O)CCN4CCCC4)ccc23)cc1` were 0.29 µM and 1.13 µM.
Taken in the same sequence, the figures for `COc1ccc(-c2nnc(SCC(=O)Nc3ccc(C(=O)/C=C/c4cc(OC)c(OC)c(OC)c4)cc3)n2-c2ccccc2)cc1OC` were 4.61 µM and greater than 10 µM.
`CCSc1ccc([C@@H]2[C@@H](N)C(=O)N2c2cc(OC)c(OC)c(OC)c2)cc1`: the GI50 was 0.0775 µM and the TGI is greater than 100 µM.
Taken in the same sequence, the figures for `CNC(=O)c1cc(Oc2ccc3nc(N[C@@H]4CCCC[C@H]4O)sc3c2)ccn1` were 23.7 µM and greater than 89.7 µM.
Taken in the same sequence, the figures for `CCOC(=O)c1ccc(N(C=O)CCC(=O)CCl)cc1` were 0.382 µM and 2.13 µM.
Taken in the same sequence, the figures for `Cc1ccc(-c2cc(-c3ccc(C)cc3)nc(N3CCN(CCNc4ccnc5cc(Cl)ccc45)CC3)n2)cc1` were 1.74 µM and 8.3 µM.
Consider `Cc1cc(NCc2cc(Nc3ccnc4cc(Cl)ccc34)ccc2F)nc(N2CCSCC2)n1`, for which the GI50 was 1.92 µM and the TGI amounted to 4.77 µM.
For `CCN(CC)CCOc1ccc(C(=C(c2ccccc2)C2CCCC2)c2ccc(OCCN(CC)CC)cc2)cc1` the same measures were 2.3 µM and 5.51 µM.
For `CN1CCN(c2ccc3nc(-c4[nH]ncc4Nc4ncnc5c4OCCCN5)[nH]c3c2)CC1`, the GI50 was less than 0.01 µM and the TGI amounted to 0.0211 µM.
For `O=C1CC(c2ccsc2)c2snc(-c3ccc(Cl)cc3)c2N1` (stereo not drawn) the same measures were 0.291 µM and 1.72 µM.
For `COc1ccc(C(=O)/C=C/c2cc(-c3ccc4c(c3)OCO4)n[nH]2)cc1OC` the same measures were 1.86 µM and 4.52 µM.
Take `CCOC(=O)Cn1c(-c2nonc2NC(=O)c2ccccc2F)nc2ccccc21`: the GI50 is 21.8 µM and the TGI is greater than 100 µM.
Taken in the same sequence, the figures for `C=C(C)[C@@H]1CC[C@]2(C(=O)O)CC[C@]3(C)[C@H](CC[C@@H]4[C@@]5(C)C/C(=C/c6cccc(I)c6)C(=O)C(C)(C)[C@@H]5CC[C@]43C)[C@@H]12` were 2.45 µM and 11.1 µM.
For `COc1ccc(-c2nc(-c3ccccn3)c(-c3ccccn3)n2CC(C)C)cc1OC1CCCC1` the same measures were 38.4 µM and 136 µM.
Take `O=C(c1nn(-c2ccc(Cl)cc2)cc1O)n1nc(C(F)(F)F)cc1-c1ccccc1`: the GI50 was 4.5 µM and the TGI is greater than 100 µM.
Taken in the same sequence, the figures for `Oc1ccc(Oc2cnc3cc(Cl)ccc3n2)cc1` were 26.3 µM and greater than 100 µM.
For `OCCn1cc(-c2cnc3nnn(Cc4ccc5ncccc5c4)c3n2)cn1` the same measures were 98.8 µM and greater than 100 µM.
Taken in the same sequence, the figures for `COc1cc(C(=O)O/N=C(\N)Cc2cccc3ccccc23)cc(OC)c1OC` were 15.7 µM and 33.2 µM.
Turning to `CCOC(=O)c1ccccc1SC(C[N+](=O)[O-])c1ccccc1` (stereo not drawn), the GI50 was 1.71 µM and the TGI is 4.06 µM.
Taken in the same sequence, the figures for `COC1C(CO)OC(n2c3c(Cl)cccc3c3c4c(c5c6cccc(Cl)c6[nH]c5c32)C(=O)NC4=O)C(O)C1O` (stereo not drawn) were 0.0743 µM and 0.352 µM.
For `CC[C@H](C)[C@H](NC(=O)NC(C)(C)C)C(=O)N(C)[C@H](C[C@@H](OC(C)=O)c1nc(C(=O)N[C@@H](Cc2ccccc2)C[C@H](C)C(=O)OC)cs1)C(C)C` the same measures were 0.0797 µM and 0.441 µM.
For `Fc1ccc([C@@H]2CCNC[C@H]2COc2ccc3c(c2)OCO3)cc1` the same measures were 5.33 µM and 21 µM.
In the case of `O=c1[nH]c(Sc2sc3ccc(Cl)cc3c2CBr)nc(=S)[nH]1`, the GI50 was greater than 68.8 µM and the TGI was greater than 100 µM.
As for `COc1ccc(/C=N\NC(=O)c2ccc3nc(-c4ccc(Cl)cc4)[nH]c3c2)cc1`, the GI50 is 1.94 µM and the TGI is 4.55 µM.
For `Nc1nccc2c1ccn2-c1cccc(NC(=O)c2ccc(N3CCOCC3)c(C(F)(F)F)c2)c1` the same measures were 0.331 µM and 3.19 µM.
For `CC[C@H](C)[C@H]1NC(=O)[C@@H]([C@H](O)C(C)C)NC(=O)[C@@H](C)N(C)C(=O)[C@H](C)N(C)C(=O)[C@H](CC(C)C)NC(=O)[C@H](CC(C)C)N(C)C(=O)[C@H](C)N(C)C1=O` the same measures were 0.536 µM and 10.5 µM.
Turning to `O=C(Nc1ccc(Nc2ccncc2)cc1)c1ccc(Nc2ccnc3ccc([N+](=O)[O-])cc23)cc1[N+](=O)[O-]`, the GI50 was 1.75 µM and the TGI came to 18.3 µM.
`C[C@@H](Oc1cc(-n2cnc3ccc(OCC4CCN(C)CC4)cc32)sc1C(N)=O)c1ccccc1Cl`: the GI50 is 0.0093 µM and the TGI was 0.22 µM.
Taken in the same sequence, the figures for `COc1cc(-c2nc3cc(Cl)c(Cl)cc3[nH]2)ccc1OCC(=O)N=Nc1c(O)[nH]c2ccc(Cl)cc12` were 0.256 µM and 0.697 µM.
As to `O=C(Nc1ccc(Oc2ccc(NC(=O)Nc3ccc([N+](=O)[O-])cc3)cc2)cc1)Nc1ccc([N+](=O)[O-])cc1`, the GI50 is 1.56 µM and the TGI turned out to be 14.1 µM.
Consider `c1ccc2cc(C[n+]3ccn(Cc4ccc5ccccc5n4)c3)ccc2c1`, for which the GI50 was 0.0807 µM and 0.611 µM; the TGI is 0.496 µM and 4.14 µM.
Turning to `O=C(O)c1cn(C2CC2)c2cc(N3CCNCC3)c(F)cc2c1=O`, the GI50 was greater than 100 µM and the TGI is greater than 100 µM.
As for `O=C1/C(=C/c2ccc(Cl)cc2)CN(C(=O)CCN2CCC(=NO)CC2)C/C1=C\c1ccc(Cl)cc1`, the GI50 is 0.833 µM and the TGI was found to be 2.51 µM.
Taken in the same sequence, the figures for `C#C[C@]1(O)CC[C@H]2[C@@H]3CC=C4c5sc(NCc6ccccc6)nc5CC[C@]4(C)[C@H]3CC[C@@]21C` were 4.4 µM and 18.3 µM.
For `COc1ccc(C2=N[C@@H](c3ccc(Cl)cc3)[C@@H](c3ccc(Cl)cc3)N2C(=O)N2CCNC(=O)C2)c(OC(C)C)c1`, the GI50 was 12.2 µM and 11.5 µM and 12.7 µM; the TGI was 25.2 µM and 24.5 µM and 26.6 µM.
Regarding `O=c1c2c(=NCCN3CCCC3)cc3c(=O)n(CCCN4CCOCC4)c(=O)c4ccc(c(O)n1CCCN1CCOCC1)c2c4-3`, the GI50 was 0.109 µM and the TGI was determined as 0.335 µM.
Taken in the same sequence, the figures for `CCCCCCCCCCCC1=NC(C)(C)CN1CC(C)O` (stereo not drawn) were 2.11 µM and 10.9 µM.
Taken in the same sequence, the figures for `CCCCCCCCNC(C)C(O)c1ccc(SC(C)C)cc1` (stereo not drawn) were 1.57 µM and 3.24 µM.
For `Clc1ccc2nc(Cl)c3ccccc3c2c1` the same measures were 10.5 µM and 38.7 µM.
In the case of `COc1cc(-c2nc(-c3ccc(-c4nc5ccc(F)cc5[nH]4)cc3)no2)cc(OC)c1OC`, the GI50 is 3.01 µM and the TGI worked out at 17.5 µM.
For `COc1cc(/C(=C2/O[C@@H]([C@H]3COC(C)(C)O3)[C@H]3OC(C)(C)O[C@@H]23)c2ccc3c(c2)OCO3)cc(OC)c1OC` the same measures were 7.93 µM and greater than 25 µM.
For `COc1ccc2c(c1)[nH]c(=O)c1c3cc(OC)c(OC)cc3cn21` the same measures were 0.0208 µM and 0.0492 µM.
Taken in the same sequence, the figures for `COc1cnc2c(c1)C(=O)c1c-2n(CCCNCCN2CCOCC2)c(=O)c2cc([N+](=O)[O-])ccc12` were 0.124 µM and 0.605 µM.
With `CCCCCCCCCCC[C@@H](C[C@H]1OC(=O)[C@H]1CCCCCC)OC(=O)[C@@H](CC(C)C)NC=O`, the GI50 was 14.1 µM and the TGI amounted to 48.3 µM.
On to `CC(C)=CC(=O)N[C@@H]1CC2CCC3C(CC[C@@]4(C)C3CC[C@@H]4C(C)N(C)C)[C@@]2(C)C[C@@H]1O` (stereo partly drawn), for which the GI50 is 1.54 µM and the TGI turned out to be 8.98 µM.
Taken in the same sequence, the figures for `O=C1NC(=O)[C@@H](c2c[nH]c3ccccc23)[C@@H]1c1c[nH]c2ccccc12` were greater than 25 µM and greater than 25 µM.
